Data published in ChEMBL document CHEMBL1146179, “Desosamine in multicomponent reactions” (Bioorg Med Chem Lett, 2006).
Calls of active or inactive are those of the source.

What was measured:
Format in all cases: functional, organism-based
[1] = tested on: Candida albicans; test: Antifungal activity against Candida albicans ATCC 10231 at 100 mM
[2] = tested on: Escherichia coli; test: Antibacterial activity against Escherichia coli at 400 mM
[3] = tested on: Bacillus subtilis; test: Antibacterial activity against Bacillus subtilis at 50 mM
[4] = tested on: Bacillus subtilis; test: Antibacterial activity against Bacillus subtilis at 100 mM
[5] = tested on: Bacillus subtilis; test: Antibacterial activity against Bacillus subtilis at 400 mM
[6] = tested on: Staphylococcus aureus; test: Antibacterial activity against Staphylococcus aureus ATCC 6538 at 50 mM
[7] = tested on: Candida albicans; test: Antifungal activity against Candida albicans ATCC 10231 at 400 mM
[8] = tested on: Escherichia coli; test: Antibacterial activity against Escherichia coli at 100 mM
[9] = tested on: Staphylococcus aureus; test: Antibacterial activity against Staphylococcus aureus ATCC 6538 at 100 mM
[10] = tested on: Staphylococcus aureus; test: Antibacterial activity against Staphylococcus aureus ATCC 6538 at 400 mM
[11] = tested on: Candida albicans; test: Antifungal activity against Candida albicans ATCC 10231 at 50 mM
[12] = tested on: Escherichia coli; test: Antibacterial activity against Escherichia coli at 50 mM

Measured: Activity

C[C@@H]1C[C@H](N(C)C)[C@@H](O)C(NCc2nnnn2C(C)(C)C)O1 (some centres undefined)
inactive: all assays above

COC(=O)Cn1nnnc1C(NC1O[C@H](C)C[C@H](N(C)C)[C@H]1O)c1ccccc1 (some centres undefined)
inactive: all assays above
